Entries after “also recorded” stand apart in the source; their conditions may differ.
System: Dahl salt-sensitive rats
Assay: Dahl salt-sensitive rat heart failure model, 8% NaCl high-salt diet (Example 1)
Type: in vivo
Settings: 8% NaCl HS diet
From the text: To determine the therapeutic potential of miR-208a inhibition in vivo, we designed an antimiR targeting bases 2 to 17 of the 5′ region of mature miR-208a and containing a combination of LNA and DNA linked by phosphorothioate bonds. The sequence of the antimiR-208a, which is referred to as M-10101, was 5′-[…]-3′ (SEQ ID NO: 12). To test the therapeutic relevance of miR-208a inhibition, we used Dahl salt-sensitive rats that were either fed a low-salt (LS) diet (0.25% NaCl) or a high-salt (HS) diet (8.0% NaCl) starting at 8 weeks of age. Initiation of an HS diet in Dahl salt-sensitive rats results in chronic hypertension, which progresses to a model of congestive heart failure associated primarily with diastolic dysfunction (Rodenbaugh et al. (2007) Am J Physiol Heart Circ Physiol. 293, H1705-H1713). After one week on the HS diet, rats were administered saline, 25 mg/kg antimiR-208a, or 25 mg/kg scrambled control oligo subcutaneously every two weeks. […] As an indication of health, we monitored body weight during the duration of the study.
The LNA-antimiR oligonucleotides were synthesized at miRagen Therapeutics, Inc. as unconjugated and fully phosphorothiolated oligonucleotides perfectly complementary to the 5′ region of the mature miR-208a sequence. The LNA control oligonucleotide consisted of a sequence directed against a C. elegans specific miRNA. […]

What does the source list for “M-10101: antimiR targeting bases 2 to 17 of mature miR-208a, LNA and DNA linked by phosphorothioate bonds; 5′-CTTTTTGCTCGTCTTA-3′ (SEQ ID NO: 12) (all phosphorothioate, sugars by position and methylation of C not given here; LNA/DNA mixmer; listed as Homo sapiens)”?
Food intake: comparable ingestion between all HS-fed groups; Survival (Kaplan-Meier) (25 mg/kg sc every 2 weeks starting 1 week after HS diet, listed as antimiR-208a, 25 mg/kg): significantly alleviated these symptoms; also recorded: significantly improved
